Measured values published in patent US9609868B2, “Alkoximino-substituted anthranilic acid diamides as pesticides” (BAYER CROPSCIENCE AKTIENGESELLSCHAFT, priority 2013, dated 2017).

Key:
[1] = log P by HPLC on reversed-phase column (C18), EEC directive 79/831 Annex V.A8; format: physicochemical; details: HPLC reversed-phase C18, 43° C., data refer to the E isomer
Method: The log P values reported in the tables and Preparation Examples above were determined in accordance with EEC directive 79/831 Annex V.A8 by HPLC (High Performance Liquid Chromatography) using a reversed-phase column (C18). Temperature 43° C. The calibration is effected with unbranched alkan-2-ones (having 3 to 16 carbon atoms), for which the log P values are known.

Myzus persicae = Myzus persicae - spray test (MYZUPE); format: in vivo; details: application rate 100 g/ha, Chinese cabbage leaf disks
Method: Myzus persicae—Spray Test (MYZUPE)
Solvent: 78 parts by weight of acetone • • 1.5 parts by weight of dimethylformamide
(§1) Emulsifier: 0.5 parts by weight of alkylaryl polyglycol ether
(§2) To produce a suitable active compound preparation, 1 part by weight of active compound is mixed with the stated amounts of solvent and emulsifier, and the concentrate is diluted with emulsifier-containing water to the desired concentration.
Disks of Chinese cabbage leaves (Brassica pekinensis) infested by all stages of the green peach aphid (Myzus persicae) are sprayed with an active compound preparation of the desired concentration.
After the desired period of time, the efficacy in % is determined. 100% means that all the aphids have been killed; 0% means that none of the aphids have been killed.

Phaedon cochleariae = Phaedon cochleariae - spray test (PHAECO); format: in vivo; details: application rate 100 g/ha, Chinese cabbage leaf disks
Method: Phaedon cochleariae—Spray Test (PHAECO)
(§3) Solvent: 78.0 parts by weight of acetone • • 1.5 parts by weight of dimethylformamide
as §1, §2
After the desired period of time, the efficacy in % is determined. 100% means that all the beetle larvae have been killed; 0% means that no beetle larvae have been killed.

Spodoptera frugiperda = Spodoptera frugiperda - spray test (SPODFR); format: in vivo; details: application rate 100 g/ha, maize leaf disks
Method: Spodoptera frugiperda—Spray Test (SPODFR)
as §3, §1, §2
Leaf disks of maize (Zea mays) are sprayed with an active compound preparation of the desired concentration and, after drying, populated with caterpillars of the armyworm (Spodoptera frugiperda).
After the desired period of time, the efficacy in % is determined. 100% means that all the caterpillars have been killed; 0% means that no caterpillars have been killed.

Compound | log p ([1]; Table A) | efficacy (aphids killed) (Myzus persicae) | efficacy (beetle larvae killed) (Phaedon cochleariae) | efficacy (caterpillars killed) (Spodoptera frugiperda) | log p ([1]; Table C)
CON=Cc1cc(C)c(NC(=O)c2cc(C(F)(F)F)nn2-c2ncccc2Cl)c(C(=O)NNC(C)=O)c1 (mixture of isomers) [A-32] | 2.38 | 90% | 100% | 100% | –
CON=Cc1cc(C)c(NC(=O)c2cc(OCC(F)(F)F)nn2-c2ncccc2Cl)c(C(=O)NNC(=O)OC)c1 (mixture of isomers) [A-33] | 2.70 | 100% | 100% | 100% | –
CCOc1cc(C(=O)Nc2c(C)cc(C=NOC)cc2C(=O)NNC(=O)OC)n(-c2ncccc2Cl)n1 (mixture of isomers) [A-34] | 2.26 | 90% | 100% | 100% | –
CON=Cc1cc(C)c(NC(=O)c2cc(OC(C)C)nn2-c2ncccc2Cl)c(C(=O)NNC(=O)OC)c1 (mixture of isomers) [A-35] | 2.54 | 90% | 100% | 100% | –
CON=Cc1cc(C)c(NC(=O)c2cc(CF)nn2-c2ncccc2Cl)c(C(=O)NNC(=O)OC)c1 (mixture of isomers) [A-44] | 2.02 | 90% | 100% | 100% | –
CON=Cc1cc(C)c(NC(=O)c2cc(Br)nn2-c2ncccc2Cl)c(C(=O)NN(C)C(=O)OC)c1 (mixture of isomers) [A-45] | 2.50 | 100% | 100% | 100% | –
CON=Cc1cc(C)c(NC(=O)c2cc(C(F)F)nn2-c2ncccc2Cl)c(C(=O)NN(C)C(=O)OC)c1 (mixture of isomers) [A-47] | 2.21 | 90% | 100% | 100% | –
CON=Cc1cc(C)c(NC(=O)c2cc(OC)nn2-c2ncccc2Cl)c(C(=O)NC2CC2)c1 (mixture of isomers) [C-30] | – | – | 100% | 100% | 2.97
CON=Cc1cc(C)c(NC(=O)c2cc(OC)nn2-c2ncccc2Cl)c(C(=O)NC(C)C2CC2)c1 (mixture of isomers) [C-31] | – | – | 100% | 100% | 3.66
CON=Cc1cc(C)c(NC(=O)c2cc(Br)nn2-c2ncccc2Cl)c(C(=O)N(C)NC(=O)OC)c1 [A-03] | 2.74 | – | 100% | 100% | –
CON=Cc1cc(C)c(NC(=O)c2cc(Br)nn2-c2ncccc2Cl)c(C(=O)NNC(=O)OC(C)C)c1 [A-06] | 2.88 | – | 100% | 100% | –
CON=Cc1cc(C)c(NC(=O)c2cc(C(F)(F)F)nn2-c2ncccc2Cl)c(C(=O)NNC(=O)OC(C)C)c1 [A-18] | 3.17 | – | 100% | 100% | –
CON=Cc1cc(C)c(NC(=O)c2cc(C(F)(F)F)nn2-c2ncccc2Cl)c(C(=O)N(C)NC(=O)OC(C)C)c1 [A-25] | 3.57 | – | 100% | 100% | –
CON=Cc1cc(C)c(NC(=O)c2cc(C(F)(F)F)nn2-c2ncccc2Cl)c(C(=O)N(C)NS(C)(=O)=O)c1 [A-31] | 2.88 | – | 100% | 100% | –
CON=Cc1cc(C)c(NC(=O)c2cc(OC(C)C)nn2-c2ncccc2Cl)c(C(=O)NC2CC2)c1 [C-06] | – | – | 100% | 100% | 2.98
CNC(=O)c1cc(C=NOC)cc(C)c1NC(=O)c1cc(OC(C)C)nn1-c1ncccc1Cl [C-65] | – | – | 100% | 100% | 2.75
